# Test results as given in ChEMBL document CHEMBL4622874, “Discovery of ORN0829, a potent dual orexin 1/2 receptor antagonist for the treatment of insomnia” (Bioorg Med Chem, 2020).
# How the values were obtained:
# [1] = molecular target: T1, Orexin/Hypocretin receptor type 1 (Homo sapiens, UniProt O43613); assay: Antagonist activity at human recombinant OX1R expressed in CHOK1 cells assessed as inhibition of orexin A-induced intracellular Ca2+ release preincubated for 30 mins followed by orexin-A stimulation by Fluo4-AM dye based fluorescence analysis; assay type: functional, cell-based, CHO-K1
# T1 sequence (O43613 whole entry): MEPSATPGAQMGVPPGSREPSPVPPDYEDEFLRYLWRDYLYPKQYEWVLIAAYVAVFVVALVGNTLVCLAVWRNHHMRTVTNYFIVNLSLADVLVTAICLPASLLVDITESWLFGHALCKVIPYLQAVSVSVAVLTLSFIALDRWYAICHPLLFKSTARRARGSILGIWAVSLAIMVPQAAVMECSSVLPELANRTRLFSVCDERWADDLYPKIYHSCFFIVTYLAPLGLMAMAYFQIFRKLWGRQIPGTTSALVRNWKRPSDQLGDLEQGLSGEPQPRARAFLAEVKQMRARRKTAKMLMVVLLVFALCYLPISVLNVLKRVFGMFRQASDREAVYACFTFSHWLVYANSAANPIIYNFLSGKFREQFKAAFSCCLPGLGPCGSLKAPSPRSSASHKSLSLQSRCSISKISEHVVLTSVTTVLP
# Orexin receptor type 2 = molecular target: T2, Orexin receptor type 2 (Homo sapiens, UniProt O43614); assay: Antagonist activity at human recombinant OX2R expressed in CHOK1 cells assessed as inhibition of orexin A-induced intracellular Ca2+ release preincubated for 30 mins followed by orexin-A stimulation by Fluo-4AM dye based fluorescence analysis; assay type: functional, cell-based, CHO-K1
# T2 sequence (O43614 whole entry): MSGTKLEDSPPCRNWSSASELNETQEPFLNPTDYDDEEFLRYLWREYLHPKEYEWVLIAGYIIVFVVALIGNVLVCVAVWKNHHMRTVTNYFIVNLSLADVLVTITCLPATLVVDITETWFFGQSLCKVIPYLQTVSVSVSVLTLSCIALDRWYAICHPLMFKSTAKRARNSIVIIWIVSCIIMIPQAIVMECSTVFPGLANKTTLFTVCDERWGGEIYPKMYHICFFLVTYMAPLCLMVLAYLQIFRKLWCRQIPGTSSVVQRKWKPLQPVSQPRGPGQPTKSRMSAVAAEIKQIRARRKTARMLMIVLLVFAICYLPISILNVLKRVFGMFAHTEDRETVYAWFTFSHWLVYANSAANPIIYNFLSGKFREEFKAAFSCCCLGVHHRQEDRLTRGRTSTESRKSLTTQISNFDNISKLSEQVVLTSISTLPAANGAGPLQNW
# [2] = Drug metabolism in human liver microsomes incubated for 15 mins; assay type: ADME, Microsome; details: read-out: Drug metabolism
# P-gp (ABCB1) = P-gp (ABCB1) (Homo sapiens, UniProt P08183); assay: Substrate activity at P-gp (unknown origin) assessed as efflux ratio; assay type: ADME; details: not told
# P-gp (ABCB1), sequence (P08183 whole entry): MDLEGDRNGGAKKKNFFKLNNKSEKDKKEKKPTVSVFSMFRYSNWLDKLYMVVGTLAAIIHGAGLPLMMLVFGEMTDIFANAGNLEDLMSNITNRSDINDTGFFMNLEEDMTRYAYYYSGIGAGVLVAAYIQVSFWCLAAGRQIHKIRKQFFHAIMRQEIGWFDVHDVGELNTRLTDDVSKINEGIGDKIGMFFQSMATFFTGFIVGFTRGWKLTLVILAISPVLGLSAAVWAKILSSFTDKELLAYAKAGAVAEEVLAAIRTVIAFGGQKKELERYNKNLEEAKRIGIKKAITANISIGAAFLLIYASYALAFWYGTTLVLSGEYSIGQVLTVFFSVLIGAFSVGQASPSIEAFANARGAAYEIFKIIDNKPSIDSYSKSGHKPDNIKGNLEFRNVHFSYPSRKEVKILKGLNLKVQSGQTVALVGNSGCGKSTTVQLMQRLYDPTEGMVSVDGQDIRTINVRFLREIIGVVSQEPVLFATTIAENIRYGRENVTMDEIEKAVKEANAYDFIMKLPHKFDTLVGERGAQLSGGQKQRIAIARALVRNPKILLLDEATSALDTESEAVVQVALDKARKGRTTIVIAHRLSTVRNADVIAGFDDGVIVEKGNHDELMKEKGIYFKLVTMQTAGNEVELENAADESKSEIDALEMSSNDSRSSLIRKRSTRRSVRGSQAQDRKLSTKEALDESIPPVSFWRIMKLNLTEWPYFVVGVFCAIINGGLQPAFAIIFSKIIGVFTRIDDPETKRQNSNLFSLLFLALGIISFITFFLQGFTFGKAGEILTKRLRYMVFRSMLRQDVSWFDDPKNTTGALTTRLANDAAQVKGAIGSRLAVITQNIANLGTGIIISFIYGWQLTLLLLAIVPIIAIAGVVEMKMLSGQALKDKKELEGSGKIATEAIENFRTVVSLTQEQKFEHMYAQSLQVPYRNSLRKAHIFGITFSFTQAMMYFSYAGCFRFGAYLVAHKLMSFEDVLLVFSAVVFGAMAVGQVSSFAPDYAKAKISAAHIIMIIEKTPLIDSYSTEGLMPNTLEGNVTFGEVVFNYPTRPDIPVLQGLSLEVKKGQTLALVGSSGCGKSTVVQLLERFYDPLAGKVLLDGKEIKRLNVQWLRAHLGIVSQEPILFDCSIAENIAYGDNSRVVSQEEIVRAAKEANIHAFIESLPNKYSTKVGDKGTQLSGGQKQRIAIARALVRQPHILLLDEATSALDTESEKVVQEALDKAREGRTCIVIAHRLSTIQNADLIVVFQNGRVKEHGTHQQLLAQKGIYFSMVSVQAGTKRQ
# [3] = Lipophilicity, log D of the compound at pH 7.4 by HPLC analysis; assay type: physicochemical; details: buffer
# Cytochrome P450 3A4 = Cytochrome P450 3A4 (Homo sapiens, UniProt P08684); assay: Time dependent inhibition of CYP3A4 (unknown origin); assay type: ADME
# Cytochrome P450 3A4, sequence (P08684 whole entry): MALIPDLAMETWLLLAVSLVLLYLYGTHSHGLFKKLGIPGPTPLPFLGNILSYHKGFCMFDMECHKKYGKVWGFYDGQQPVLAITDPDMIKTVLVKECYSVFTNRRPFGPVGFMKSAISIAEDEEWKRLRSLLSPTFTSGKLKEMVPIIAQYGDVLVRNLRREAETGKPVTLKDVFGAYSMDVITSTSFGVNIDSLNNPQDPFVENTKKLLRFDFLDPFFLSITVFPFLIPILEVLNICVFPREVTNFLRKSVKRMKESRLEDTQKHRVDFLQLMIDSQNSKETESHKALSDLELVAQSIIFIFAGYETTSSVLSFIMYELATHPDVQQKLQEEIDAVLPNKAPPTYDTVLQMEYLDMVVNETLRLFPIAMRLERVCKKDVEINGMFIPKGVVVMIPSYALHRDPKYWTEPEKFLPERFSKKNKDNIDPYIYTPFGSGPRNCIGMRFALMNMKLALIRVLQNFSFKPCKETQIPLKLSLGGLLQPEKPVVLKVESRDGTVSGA
# [4] = molecular target: Voltage-gated inwardly rectifying potassium channel KCNH2 (Homo sapiens, UniProt Q12809); assay: Inhibition of human ERG
# Voltage-gated inwardly rectifying potassium channel KCNH2, sequence (Q12809 whole entry): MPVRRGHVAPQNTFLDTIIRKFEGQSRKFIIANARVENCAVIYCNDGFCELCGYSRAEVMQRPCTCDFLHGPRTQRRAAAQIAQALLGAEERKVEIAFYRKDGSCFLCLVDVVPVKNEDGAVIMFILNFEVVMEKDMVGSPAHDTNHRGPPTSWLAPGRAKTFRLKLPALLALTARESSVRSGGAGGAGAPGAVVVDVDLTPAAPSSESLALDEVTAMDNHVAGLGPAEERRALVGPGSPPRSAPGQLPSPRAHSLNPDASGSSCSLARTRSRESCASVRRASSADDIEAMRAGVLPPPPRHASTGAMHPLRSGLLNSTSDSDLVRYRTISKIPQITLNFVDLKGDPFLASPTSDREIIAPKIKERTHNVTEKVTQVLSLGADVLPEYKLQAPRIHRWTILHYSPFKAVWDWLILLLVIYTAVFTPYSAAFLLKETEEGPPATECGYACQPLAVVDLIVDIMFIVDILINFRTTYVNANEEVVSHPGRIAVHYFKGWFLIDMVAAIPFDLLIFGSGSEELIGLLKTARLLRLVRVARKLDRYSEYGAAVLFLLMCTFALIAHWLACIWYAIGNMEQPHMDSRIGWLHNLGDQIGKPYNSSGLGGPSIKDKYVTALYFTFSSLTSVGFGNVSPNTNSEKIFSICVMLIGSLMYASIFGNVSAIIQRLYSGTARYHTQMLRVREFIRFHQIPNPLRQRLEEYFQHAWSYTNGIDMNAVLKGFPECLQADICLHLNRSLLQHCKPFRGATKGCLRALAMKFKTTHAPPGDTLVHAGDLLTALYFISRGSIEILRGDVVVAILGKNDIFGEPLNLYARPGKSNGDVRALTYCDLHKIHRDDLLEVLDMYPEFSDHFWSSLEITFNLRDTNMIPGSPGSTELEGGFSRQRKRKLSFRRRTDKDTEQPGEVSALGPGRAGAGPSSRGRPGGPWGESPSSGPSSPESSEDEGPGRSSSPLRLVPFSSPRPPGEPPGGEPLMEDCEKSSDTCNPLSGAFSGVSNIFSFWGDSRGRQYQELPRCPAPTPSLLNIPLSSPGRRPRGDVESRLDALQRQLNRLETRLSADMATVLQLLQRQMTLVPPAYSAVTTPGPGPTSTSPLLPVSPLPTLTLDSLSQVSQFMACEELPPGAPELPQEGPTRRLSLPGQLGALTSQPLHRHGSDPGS
IC50 [1] [nM],IC50 (Orexin receptor type 2) [nM],metabolised at 0.25 h [2] [%],efflux ratio (P-gp (ABCB1)),logD [3],inhibition (INH) (Cytochrome P450 3A4),SMILES,inhibition (INH) [4]
3.29,3.18,26.3,6.74,2.36,–,Cc1ccc(-c2ncccn2)c(C(=O)N2CCCO[C@H]2Cn2ccc(-c3ccc(F)cn3)n2)c1,–
5.39,–,15.8,–,2.38,–,Cc1ccc(-n2nccn2)c(C(=O)N2CCCO[C@H]2Cn2cc(-c3ccc(F)cn3)cn2)c1,–
3.36,3.41,24.1,3.08,2.39,–,Cc1ccc(-n2nccn2)c(C(=O)N2COCC[C@H]2Cn2ccc(-c3ccc(F)cn3)n2)c1,–
2.21,–,24.8,–,3.15,Active,Cc1ccc(-n2nccn2)c(C(=O)N2CCCO[C@H]2Cn2cc(-c3ccc(F)cc3)cn2)c1,Active
–,–,20.2,1.51,2.78,–,CCN(CCn1ccc(-c2ccc(F)cn2)n1)C(=O)c1cc(C)ccc1-n1nccn1,–
363,313,–,–,3.06,–,Cc1ccc(-n2nccn2)c(C(=O)N2CCC[C@@H]2Cn2ccc(-c3ccc(F)cn3)n2)c1,–
85.5,5.4,15.6,2.88,2.52,–,Cc1ccc(-n2nccn2)c(C(=O)N2CCCO[C@H]2Cn2ncn(-c3ccc(F)cn3)c2=O)c1,–
149,133,18,1.65,2.52,–,Cc1ccc(-n2nccn2)c(C(=O)N2COC[C@H]2Cn2ccc(-c3ccc(F)cn3)n2)c1,–
4.54,3.6,19.5,3.06,2.53,–,Cc1ccc(-n2nccn2)c(C(=O)N2CCCO[C@H]2Cc2noc(-c3ccc(F)cn3)n2)c1,–
3.5,15,24.5,3.56,2.33,–,Cc1ccc(-n2nccn2)c(C(=O)N2CCOC[C@H]2Cn2ccc(-c3ccc(F)cn3)n2)c1,–
20.8,52.4,–,–,2.95,–,Cc1ccc(-n2nccn2)c(C(=O)N2CCCC[C@@H]2Cn2ccc(-c3ccc(F)cn3)n2)c1,–
3.3,3.15,37.2,1.96,3.08,–,Cc1ccc(-n2nccn2)c(C(=O)N2CCC[C@H]2Cn2ccc(-c3ccc(F)cn3)n2)c1,–
61.1,2300,53,1.34,3.51,–,Cc1ccc(-n2nccn2)c(C(=O)N2CCS[C@H]2Cn2ccc(-c3ccc(F)cn3)n2)c1,–
3.98,–,29.7,–,3.03,–,Cc1ccc(-n2nccn2)c(C(=O)N2CCCO[C@H]2Cc2cnn(-c3ccc(F)cn3)c2)c1,–
2.27,1.64,51.9,1.63,2.96,–,Cc1ccc(-n2nccn2)c(C(=O)N2CCCC[C@H]2Cn2ccc(-c3ccc(F)cn3)n2)c1,–
3.95,1.96,43.2,2.64,2.46,–,O=C(c1cc(F)ccc1-n1nccn1)N1CCCO[C@H]1Cn1ccc(-c2ccc(F)cn2)n1,–
8.08,–,15.7,–,2.67,–,Cc1ccc(-n2nccn2)c(C(=O)N2CCO[C@H]2Cn2ccc(-c3ccc(F)cn3)n2)c1,–
2.9,1.88,16.4,1.38,2.8,–,Cc1ccc(-n2nccn2)c(C(=O)N2CCCO[C@H]2Cn2ncc(-c3ccc(F)cn3)n2)c1,–
2690,–,–,–,2.68,–,Cc1ccc(-n2nccn2)c(C(=O)N2CCO[C@@H]2Cn2ccc(-c3ccc(F)cn3)n2)c1,–
3.22,4.58,28.9,5.36,2.3,–,O=C(c1cc(F)ccc1-c1ncccn1)N1CCCO[C@H]1Cn1ccc(-c2ccc(F)cn2)n1,–
4.6,13.1,73.7,1.13,3.08,–,Cc1ccc(-n2nccn2)c(C(=O)N2CSC[C@H]2Cn2ccc(-c3ccc(F)cn3)n2)c1,–
3.76,2.62,14.6,3.25,2.3,–,O=C(c1ccccc1-n1nccn1)N1CCCO[C@H]1Cn1ccc(-c2ccc(F)cn2)n1,–
12.1,3.07,4.3,4.97,2.38,–,Cc1ccc(-n2nccn2)c(C(=O)N2CCCO[C@H]2Cn2cc(-c3ccc(F)cn3)nn2)c1,–

SMILES,IC50 [1] [nM],IC50 (Orexin receptor type 2) [nM],metabolised at 0.25 h [2] [%],efflux ratio (P-gp (ABCB1)),logD [3],inhibition (INH) (Cytochrome P450 3A4),inhibition (INH) [4]
Cc1ccc(-n2nccn2)c(C(=O)N2CCCO[C@@H]2Cn2ccc(-c3ccc(F)cn3)n2)c1,344,274,–,–,2.56,–,–
